Measurements from the supplement of paper PMC11208160.

Experiment: recombinant UMI read abundance after kanamycin selection (control-corrected) (log10(CPM+1)); higher = more efficient recombination; extreme values may be limits of the assay; sequences stand for … in AGTGCAGAGAAAATCGGCCAGTTTTCTCTGCCTGCAGTCCGCATGCCGTGGGACCCCTTGGGTTCTAACCTGTTGCCTAGATTTATGCAGCGGACTGCCTTTCTCCCAAAGTGATAAACCGG…AGGTTGGTTTCACT; site = the 11-nt donor
Method in brief: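 In Escherichia coli, a pool of donor and donor-binding-loop pairs, each with a 12-nt UMI, was tested for the IS621 bridge recombinase. Plating was on IPTG (0.07 mM) plus kanamycin, or without selection, in two replicates. Recombinant UMIs were amplified by PCR across the donor–target junction and sequenced, and counts were reported as log10(CPM+1) after averaging and control-derived scaling.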
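Further: IS621 bridge recombinase in Escherichia coli cells against a fixed T5 target plasmid.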

Sequence: TACAAACCATGGACCGGTTTTCCCGGTAATCCGTATTTGGT (site TACAAACCTAC)
- recombinant UMI read abundance (log10): 0.00495

Sequence: TACAATTCATGGACCGGTTTTCCCGGTAATCCGTATTTGCC (site TACAATTCTGG)
- recombinant UMI read abundance (log10): 0.00632

Sequence: TACAATTCATGGACCGGTTTTCCCGGTAATCCGTATTTGCC (site TCCAATTCTGG)
- recombinant UMI read abundance (log10): 0

Sequence: TACAATTCATGGACCGGTTTTCCCGGTAATCCGTATTTGCC (site TGCAATTCTGG)
- recombinant UMI read abundance (log10): 0.434

Sequence: TACAATTCATGGACCGGTTTTCCCGGTAATCCGTATTTGCC (site TTCAATTCTGG)
- recombinant UMI read abundance (log10): 0

Sequence: TACAGCGCATGGACCGGTTTTCCCGGTAATCCGTATTTGGC (site TACAGCGCTGC)
- recombinant UMI read abundance (log10): 2.37

Sequence: TACAGTACATGGACCGGTTTTCCCGGTAATCCGTATTTGGT (site TACAGTACTAC)
- recombinant UMI read abundance (log10): 0.439

Sequence: TACAGTCCATGGACCGGTTTTCCCGGTAATCCGTATTTGCG (site TACAGTCCTCG)
- recombinant UMI read abundance (log10): 0.004

Sequence: TACATAGCATGGACCGGTTTTCCCGGTAATCCGTATTTGGG (site TACATAGCTCC)
- recombinant UMI read abundance (log10): 0.013

Sequence: TACATGGCATGGACCGGTTTTCCCGGTAATCCGTATTTGCT (site TACATGGCTAG)
- recombinant UMI read abundance (log10): 1.32

Sequence: TACCACACATGGACCGGTTTTCCCGGTAATCCGTATTTGTC (site TACCACACTGA)
- recombinant UMI read abundance (log10): 2.09

Sequence: TACCTAGCATGGACCGGTTTTCCCGGTAATCCGTATTTGAA (site TAACTAGCTTT)
- recombinant UMI read abundance (log10): 0

Sequence: TACCTAGCATGGACCGGTTTTCCCGGTAATCCGTATTTGAA (site TACCTAGCTTT)
- recombinant UMI read abundance (log10): 0.00543

Sequence: TACCTAGCATGGACCGGTTTTCCCGGTAATCCGTATTTGAA (site TAGCTAGCTTT)
- recombinant UMI read abundance (log10): 0

Sequence: TACCTAGCATGGACCGGTTTTCCCGGTAATCCGTATTTGAA (site TATCTAGCTTT)
- recombinant UMI read abundance (log10): 0.0166

Sequence: TACCTGACATGGACCGGTTTTCCCGGTAATCCGTATTTGTG (site TACCTGACTCA)
- recombinant UMI read abundance (log10): 0.0209

Sequence: TACGACGCATGGACCGGTTTTCCCGGTAATCCGTATTTGGG (site TACGACGCTCC)
- recombinant UMI read abundance (log10): 0.012

Sequence: TACGGAACATGGACCGGTTTTCCCGGTAATCCGTATTTGCT (site TACGGAACTAG)
- recombinant UMI read abundance (log10): 0.249

Sequence: TACGGACCATGGACCGGTTTTCCCGGTAATCCGTATTTGTC (site TACGGACCTGA)
- recombinant UMI read abundance (log10): 0

Sequence: TACGGCCCATGGACCGGTTTTCCCGGTAATCCGTATTTGCG (site TACGGCCCTCG)
- recombinant UMI read abundance (log10): 0.024

Sequence: TACGTCACATGGACCGGTTTTCCCGGTAATCCGTATTTGGG (site TACGTCACTCC)
- recombinant UMI read abundance (log10): 0.0239

Sequence: TACGTGACATGGACCGGTTTTCCCGGTAATCCGTATTTGCA (site TACGTGACTTG)
- recombinant UMI read abundance (log10): 2.29

Sequence: TACTAGACATGGACCGGTTTTCCCGGTAATCCGTATTTGCT (site TACTAGACTAG)
- recombinant UMI read abundance (log10): 1.84

Sequence: TACTAGACATGGACCGGTTTTCCCGGTAATCCGTATTTGCT (site TACTCGACTAG)
- recombinant UMI read abundance (log10): 0.00336

Sequence: TACTAGACATGGACCGGTTTTCCCGGTAATCCGTATTTGCT (site TACTGGACTAG)
- recombinant UMI read abundance (log10): 0

Sequence: TACTAGACATGGACCGGTTTTCCCGGTAATCCGTATTTGCT (site TACTTGACTAG)
- recombinant UMI read abundance (log10): 0

Sequence: TACTAGTCATGGACCGGTTTTCCCGGTAATCCGTATTTGGA (site TACTAGTCTTC)
- recombinant UMI read abundance (log10): 1.59

Sequence: TACTCCTCATGGACCGGTTTTCCCGGTAATCCGTATTTGCC (site AACTCCTCTGG)
- recombinant UMI read abundance (log10): 0.934

Sequence: TACTCCTCATGGACCGGTTTTCCCGGTAATCCGTATTTGCC (site CACTCCTCTGG)
- recombinant UMI read abundance (log10): 1.86

Sequence: TACTCCTCATGGACCGGTTTTCCCGGTAATCCGTATTTGCC (site GACTCCTCTGG)
- recombinant UMI read abundance (log10): 0.715

Sequence: TACTCCTCATGGACCGGTTTTCCCGGTAATCCGTATTTGCC (site TACTCCTCTGG)
- recombinant UMI read abundance (log10): 2.63

Sequence: TACTCGACATGGACCGGTTTTCCCGGTAATCCGTATTTGCT (site TACTAGACTAG)
- recombinant UMI read abundance (log10): 0.956

Sequence: TACTCGACATGGACCGGTTTTCCCGGTAATCCGTATTTGCT (site TACTCGACTAG)
- recombinant UMI read abundance (log10): 1.49

Sequence: TACTCGACATGGACCGGTTTTCCCGGTAATCCGTATTTGCT (site TACTGGACTAG)
- recombinant UMI read abundance (log10): 0.00865

Sequence: TACTCGACATGGACCGGTTTTCCCGGTAATCCGTATTTGCT (site TACTTGACTAG)
- recombinant UMI read abundance (log10): 1.01

Sequence: TACTCGACATGGACCGGTTTTCCCGGTAATCCGTATTTGTC (site TACTCGACTGA)
- recombinant UMI read abundance (log10): 0.0119

Sequence: TACTGCGCATGGACCGGTTTTCCCGGTAATCCGTATTTGAC (site TACTGCGCTGT)
- recombinant UMI read abundance (log10): 1.9

Sequence: TACTGGTCATGGACCGGTTTTCCCGGTAATCCGTATTTGAC (site TACTGGTCTGT)
- recombinant UMI read abundance (log10): 1.07

Sequence: TACTTCGCATGGACCGGTTTTCCCGGTAATCCGTATTTGAT (site TACTTCGCTAT)
- recombinant UMI read abundance (log10): 0.583

Sequence: TACTTCTCATGGACCGGTTTTCCCGGTAATCCGTATTTGTT (site TACTTCTCTAA)
- recombinant UMI read abundance (log10): 1.35

Sequence: TACTTGACATGGACCGGTTTTCCCGGTAATCCGTATTTGAT (site TACTTGACTAA)
- recombinant UMI read abundance (log10): 0.0207

Sequence: TACTTGACATGGACCGGTTTTCCCGGTAATCCGTATTTGAT (site TACTTGACTAC)
- recombinant UMI read abundance (log10): 0.015

Sequence: TACTTGACATGGACCGGTTTTCCCGGTAATCCGTATTTGAT (site TACTTGACTAG)
- recombinant UMI read abundance (log10): 0.00211

Sequence: TACTTGACATGGACCGGTTTTCCCGGTAATCCGTATTTGAT (site TACTTGACTAT)
- recombinant UMI read abundance (log10): 0.476

Sequence: TACTTGACATGGACCGGTTTTCCCGGTAATCCGTATTTGCG (site TACTTGACTAG)
- recombinant UMI read abundance (log10): 0.00183

Sequence: TACTTGACATGGACCGGTTTTCCCGGTAATCCGTATTTGCG (site TACTTGACTCG)
- recombinant UMI read abundance (log10): 0.524

Sequence: TACTTGACATGGACCGGTTTTCCCGGTAATCCGTATTTGCG (site TACTTGACTGG)
- recombinant UMI read abundance (log10): 0

Sequence: TACTTGACATGGACCGGTTTTCCCGGTAATCCGTATTTGCG (site TACTTGACTTG)
- recombinant UMI read abundance (log10): 0

Sequence: TACTTGACATGGACCGGTTTTCCCGGTAATCCGTATTTGTT (site TACTTGACTAA)
- recombinant UMI read abundance (log10): 0.00709

Sequence: TACTTGACATGGACCGGTTTTCCCGGTAATCCGTATTTGTT (site TACTTGACTAC)
- recombinant UMI read abundance (log10): 0.0106

Sequence: TACTTGACATGGACCGGTTTTCCCGGTAATCCGTATTTGTT (site TACTTGACTAG)
- recombinant UMI read abundance (log10): 0.00636

Sequence: TACTTGACATGGACCGGTTTTCCCGGTAATCCGTATTTGTT (site TACTTGACTAT)
- recombinant UMI read abundance (log10): 0.00466

Sequence: TACTTGGCATGGACCGGTTTTCCCGGTAATCCGTATTTGCT (site TACTTGACTAG)
- recombinant UMI read abundance (log10): 0.00409

Sequence: TACTTGGCATGGACCGGTTTTCCCGGTAATCCGTATTTGCT (site TACTTGCCTAG)
- recombinant UMI read abundance (log10): 0.00558

Sequence: TACTTGGCATGGACCGGTTTTCCCGGTAATCCGTATTTGCT (site TACTTGGCTAG)
- recombinant UMI read abundance (log10): 0.00377

Sequence: TACTTGGCATGGACCGGTTTTCCCGGTAATCCGTATTTGCT (site TACTTGTCTAG)
- recombinant UMI read abundance (log10): 0

Sequence: TACTTGGCATGGACCGGTTTTCCCGGTAATCCGTATTTGGA (site AACTTGGCTTC)
- recombinant UMI read abundance (log10): 0.0162

Sequence: TACTTGGCATGGACCGGTTTTCCCGGTAATCCGTATTTGGA (site CACTTGGCTTC)
- recombinant UMI read abundance (log10): 0.00371

Sequence: TACTTGGCATGGACCGGTTTTCCCGGTAATCCGTATTTGGA (site GACTTGGCTTC)
- recombinant UMI read abundance (log10): 0.00882

Sequence: TACTTGGCATGGACCGGTTTTCCCGGTAATCCGTATTTGGA (site TACTTGGCTTC)
- recombinant UMI read abundance (log10): 0.216

Sequence: TACTTGTCATGGACCGGTTTTCCCGGTAATCCGTATTTGGG (site TACTTGTCTCC)
- recombinant UMI read abundance (log10): 0.17

Sequence: TACTTTACATGGACCGGTTTTCCCGGTAATCCGTATTTGCT (site TACTTAACTAG)
- recombinant UMI read abundance (log10): 0

Sequence: TACTTTACATGGACCGGTTTTCCCGGTAATCCGTATTTGCT (site TACTTCACTAG)
- recombinant UMI read abundance (log10): 1.36

Sequence: TACTTTACATGGACCGGTTTTCCCGGTAATCCGTATTTGCT (site TACTTGACTAG)
- recombinant UMI read abundance (log10): 0.00292

Sequence: TACTTTACATGGACCGGTTTTCCCGGTAATCCGTATTTGCT (site TACTTTACTAG)
- recombinant UMI read abundance (log10): 1.01

Sequence: TAGAATACATGGACCGGTTTTCCCGGTAATCCGTATTTGGA (site TAGAATACTTA)
- recombinant UMI read abundance (log10): 0.00272

Sequence: TAGAATACATGGACCGGTTTTCCCGGTAATCCGTATTTGGA (site TAGAATACTTC)
- recombinant UMI read abundance (log10): 1.99

Sequence: TAGAATACATGGACCGGTTTTCCCGGTAATCCGTATTTGGA (site TAGAATACTTG)
- recombinant UMI read abundance (log10): 0

Sequence: TAGAATACATGGACCGGTTTTCCCGGTAATCCGTATTTGGA (site TAGAATACTTT)
- recombinant UMI read abundance (log10): 0.731

Sequence: TAGACAACATGGACCGGTTTTCCCGGTAATCCGTATTTGAG (site TAGACAACTCT)
- recombinant UMI read abundance (log10): 0.821

Sequence: TAGAGCGCATGGACCGGTTTTCCCGGTAATCCGTATTTGTG (site TAGAGCGCTCA)
- recombinant UMI read abundance (log10): 1.05

Sequence: TAGAGTACATGGACCGGTTTTCCCGGTAATCCGTATTTGCA (site TAGAATACTTG)
- recombinant UMI read abundance (log10): 1.37

Sequence: TAGAGTACATGGACCGGTTTTCCCGGTAATCCGTATTTGCA (site TAGACTACTTG)
- recombinant UMI read abundance (log10): 0.88

Sequence: TAGAGTACATGGACCGGTTTTCCCGGTAATCCGTATTTGCA (site TAGAGTACTTG)
- recombinant UMI read abundance (log10): 2.08

Sequence: TAGAGTACATGGACCGGTTTTCCCGGTAATCCGTATTTGCA (site TAGATTACTTG)
- recombinant UMI read abundance (log10): 0
